Data on 5 molecules can be found in patent US8663616B2, “Enzymatic peracid generation for use in oral care products” (E I du Pont de Nemours and Company, priority 2010, dated 2014).

Assay [1] is described as follows: Bleaching of coffee-tea stained bovine enamel with EZ-1 and various ester substrates (Example 15). On the procedure:
The optimal conditions used for the generation of peracetic acid with each substrate were derived from the studies in Example 14 and are listed below as follows:
Bovine enamel incisors were prepared as indicated in Example 1. The stained enamel blocks were placed in a 24 well plate with the dentin side facing down and hydrated overnight in phosphate buffer, pH 7.2. Prior to treatment, a color measurement of each tooth was performed using a Konica-Minolta 2600d spectrophotometer and whiteness index was calculated as specified in Example 1.
Each enzyme solution was prepared in a 1.5-mL microfuge tube (Eppendorf, #2243102-1) and 1 mL of the solution was immediately transferred to the 24 well plate containing the pre-hydrated teeth. The control samples consisted of 100 mM phosphate buffer, pH 7.2 and 9% H2O2 in 100 mM citrate/phosphate buffer, pH 5.3. The teeth were incubated at room temperature for 30 minutes, removed, rinsed with 100 mM phosphate, pH 7.2 and a color measurement was taken. The teeth were placed back into the 24 well plate at which time fresh enzyme solutions were prepared and added to each well. This process was repeated for a total of 3 whitening treatments; 30 min per treatment (Table 22).

Assay [2] is described as follows: One-step bleaching of stained bovine enamel with perhydrolase system (Example 12). The source says: (§1) Whiteness index (WI) is defined by the International Commission on Illumination (CIE) and described in ASTM method E313-05 and calculated for D65/10 incident light as: WI=Y+800*(0.3138−x)+1700*(0.3310−y) Where Y, x, and y are the luminance factor and the chromaticity coordinates respectively of the enamel substrate.
(§2) The purpose of this example is to show the tooth bleaching effect of enzymatic generated peracetic acid in a one-step application and compare to the performance achieved with chemically derived peracetic acid. Two methods were developed to use a perhydrolytic enzyme (CE-7 perhydrolase) system to achieve the target level of tooth bleaching. The first method (referred to herein as the “one-step approach”) comprises combining different amounts of at least one CE-7 perhydrolase with triacetin (an example of a suitable ester substrate) and hydrogen peroxide to generate peracetic acid using model stained enamel substrates. Bovine enamel incisors were prepared as indicated in Example 1. Stained bovine enamel blocks were hydrated in water at least 1 hr prior to use to stabilize the color of the substrate. The color for each enamel block was measured after hydration prior to the start of the experiment. Three enamel samples were treated for each solution type. The solutions used were a buffer only control, 2.5% H2O2, 1% peracetic acid, a perhydrolase composition including 10 μM EZ-1 (C277S; SEQ ID NO: 424), 100 mM triacetin and 250 mM H2O2 and a no enzyme control of 100 mM triacetin and 250 mM H2O2. All solutions were prepared in 500 mM sodium phosphate buffer, pH 7.2. The high buffer strength was necessary to maintain the 1% peracetic acid solution at neutral pH. All solutions were freshly prepared for each treatment point. The enzyme-triacetin-H2O2 combination and triacetin-H2O2 combination was mixed immediately before enamel exposure. After each treatment step, each enamel block was rinsed with water and a color measurement was obtained. A total treatment time of 61 min was used with durations of exposure of 1 min, 5 min, 10 min, 15 min and 30 min. The concentration of peracetic acid in solution after the 1 min, 10 min and 30 min treatments was evaluated by colorimetric detection of ABTS oxidation.

Assay [3] is described as follows: Peracetic acid vs hydrogen peroxide bleaching of coffee/tea stained bovine enamel (whiteness index). The settings on record: for ΔWI: 0 to 61 min; for Whiteness Index 0 min: before exposure.
Text: This example describes the use of peracetic acid to achieve a bleaching effect on model stained enamel surfaces. Bovine enamel incisors were obtained from SE Dental (Baton Rouge, La.). Teeth were sectioned and cut into enamel slabs approximately 7 mm on each side using a DREMEL® rotary saw (Robert Bosch Power Tool Corporation; Chicago, Ill.) with a diamond blade. The enamel slabs were cleaned and lightly polished to remove surface debris. The enamel was pretreated with a mixture of coffee and tea for 1-5 days in order to stain to a color similar to human stained teeth.
Each enamel block was hydrated in water for at least 1 hr prior to use. Color measurements for the substrate were obtained prior to exposure to test solutions. Solutions of peracetic acid were prepared from a 32% stock in 500 mM sodium phosphate buffer, pH 7.2. A solution of 2.5% H2O2 was also prepared in the same buffer. Multiple enamel blocks were exposed to each solution for 1 min followed by additional exposures of 5 min, 10 min, 15 min and 30 min. For each treatment, a fresh solution of peracetic acid and hydrogen peroxide was prepared from the stock solutions. After each treatment the enamel blocks were rinsed with water and measured with a Konica-Minolta 2600d spectrophotometer.
as §1

The nature of assay [4]: Peracetic acid in treatment solution by ABTS absorbance (Example 12). It is filed as biochemical. The settings on record: 1:100 dilution into ABTS reagent.
Text: as §2
Determination of the peracetic acid (PAA) concentration in the reaction mixtures by a colorimetric method was performed according to the method described by Dinu et. al. (supra). A reagent solution of 1 mM 2,2′-azino-bis(3-ethylbenzothiazoline)-6-sulfonate (ABTS), 50 μM potassium iodide in 125 mM potassium citrate buffer at pH 5.0 was prepared. […] The solution was analyzed for absorbance at 405 nm using a Microplate reader. A comparison of relative amounts of peracetic acid in solution was determined by comparing absorbance values directly.

Assay [5] in a line: Peracetic acid from C277S CXH fusions exposed to hydroxyapatite discs (Example 9). Particulars: no enzyme control subtracted; for Peracetic acid (ppm) Exposed to Hydroxyapatite, Disc: disc-bound enzyme, 100 mM triacetin, 100 mM H2O2, 30 min, 37° C.; for Peracetic acid (ppm) Exposed to Hydroxyapatite, Supernatant: unbound enzyme in supernatant after 10 μM enzyme on disc.
Assay [6] in a line: Peracetic acid generated in solution by C277S CXH fusions (Example 9). The settings on record: 0.5 μM enzyme, sarkosyl buffer, 100 mM triacetin, 100 mM H2O2, pH 7.2, 10 min, 37° C.

With `OO` [Enzyme H2O2, hydrogen peroxide], the “Whiteness Index Treatment 1” value in assay [1] (after 1 x 30 min treatment) is −129.6. The “Whiteness Index Treatment 2” value in assay [1] (after 2 x 30 min treatments) is reported as −117.6. The “Whiteness Index Treatment 3” value in assay [1] (after 3 x 30 min treatments) was −115.2. For the same molecule, the “Whiteness Index Treatment 0” value in assay [1] (before treatment, 40 ppm EZ-1, 100 mM substrate, H2O2 100 mM (TA), 360 mM (PGDA, SOC), 60 mM (GPA), pH 7.2, control 9% H2O2 pH 5.3 without enzyme) was −167.6. Also, the ΔWI stood at 52.4 in assay [1] (treatment 0 to treatment 3); 46.2 in assay [2] (one-step, 0 to 61 min); 42.6 in assay [3] (Table 1, 2.5% H2O2 or 0.5% PAA); 37.4 in assay [3] (Table 2, 2.5% H2O2). The “Whiteness Index 0 min” value in assay [2] (before treatment, 2.5% H2O2, 100 mM triacetin/250 mM H2O2, 1% PAA, 10 μM EZ-1/100 mM triacetin/250 mM H2O2, pH 7.2) was −149.3; in assay [3] (Table 1, 2.5% H2O2 or 0.5% PAA, 500 mM sodium phosphate pH 7.2), −127.5; in assay [3] (Table 2, 2.5% H2O2), −93.8. For the same molecule, the “Whiteness Index 1 min” value in assay [2] (one-step, cumulative treatment 1 min) was −146.3; in assay [3] (Table 1, 2.5% H2O2 or 0.5% PAA, cumulative exposure 1 min), −127.2; in assay [3] (Table 2, 2.5% H2O2), −92.6. Moreover, the “Whiteness Index 6 min” value is −142.5 in assay [2] (one-step, cumulative treatment 6 min); −124.5 in assay [3] (Table 1, 2.5% H2O2 or 0.5% PAA, cumulative exposure 6 min); −86.4 in assay [3] (Table 2, 2.5% H2O2). In addition, the “Whiteness Index 16 min” value in assay [2] (one-step, cumulative treatment 16 min) is −134.7; in assay [3] (Table 1, 2.5% H2O2 or 0.5% PAA, cumulative exposure 16 min), −118.4; in assay [3] (Table 2, 2.5% H2O2), −79.5. For the same molecule, the “Whiteness Index 31 min” value in assay [2] (one-step, cumulative treatment 31 min) is listed as −125.2; in assay [3] (Table 1, 2.5% H2O2 or 0.5% PAA, cumulative exposure 31 min) it was −103.6; in assay [3] (Table 2, 2.5% H2O2), −68.3. The “Whiteness Index 61 min” value in assay [2] (one-step, cumulative treatment 61 min) is −103.1; in assay [3] (Table 1, 2.5% H2O2 or 0.5% PAA, cumulative exposure 61 min), −84.9; in assay [3] (Table 2, 2.5% H2O2) it was −56.4. For the same molecule, the “Absorbance 405 nm, 1 min” value in assay [4] (peracetic acid at end of 1 min treatment) came out at 0.056. Further, the “Absorbance 405 nm, 10 min” value in assay [4] (peracetic acid at end of 10 min treatment) came out at 0.060. The “Absorbance 405 nm, 30 min” value in assay [4] (peracetic acid at end of 30 min treatment) was determined as 0.054.

B1: EZ-26: C277S-EPEPEPEPEPE-Link1-CXHG102-H6, SEQ ID NO: 450 (protein)
chain: MAFFDLPLEELKKYRPERYEEKDFDEFWEETLAESEKFPLDPVFERMESHLKTVEAYDVTFSGYRGQRIKGWLLVPKLEEEKLPCVVQYIGYNGGRGFPHDWLFWPSMGYICFVMDTRGQGSGWLKGDTPDYPEGPVDPQYPGFMTRGILDPRTYYYRRVFTDAVRAVEAAASFPQVDQERIVIAGGSQGGGIALAVSALSKKAKALLCDVPFLCHFRRAVQLVDTHPYAEITNFLKTHRDKEEIVFRTLSYFDGVNFAARAKIPALFSVGLMDNISPPSTVFAAYNYYAGPKEIRIYPYNNHEGGGSFQAVEQVKFLKKLFEKGEPEPEPEPEPEPEPEGPGSGGAGSPGSAGGPGSLRFLARRFLKLRRARKWWNAWKVWVTRHHHHHH
Consider B1, for which, in assay [5], the “Peracetic acid (ppm) Exposed to Hydroxyapatite, Disc” value (“Peracetic acid (ppm) Exposed … Disc” for short) is listed as 1849 ppm and the “Peracetic acid (ppm) Exposed to Hydroxyapatite, Supernatant” value (“Peracetic acid … Supernatant” below) worked out at 1636 ppm. In assay [6], the “Peracetic acid (ppm) In Solution” value is 2273 ppm.

B2: EZ-24: C277S-…-Link1-CXH104-H6, SEQ ID NO: 448 (protein)
chain: MAFFDLPLEELKKYRPERYEEKDFDEFWEETLAESEKFPLDPVFERMESHLKTVEAYDVTFSGYRGQRIKGWLLVPKLEEEKLPCVVQYIGYNGGRGFPHDWLFWPSMGYICFVMDTRGQGSGWLKGDTPDYPEGPVDPQYPGFMTRGILDPRTYYYRRVFTDAVRAVEAAASFPQVDQERIVIAGGSQGGGIALAVSALSKKAKALLCDVPFLCHFRRAVQLVDTHPYAEITNFLKTHRDKEEIVFRTLSYFDGVNFAARAKIPALFSVGLMDNISPPSTVFAAYNYYAGPKEIRIYPYNNHEGGGSFQAVEQVKFLKKLFEKGEPEPEPEGPGSGGAGSPGSAGGPGSRMLSRILRMFVRILKRERLSQVRGLFVHHHHHH
As to B2, in assay [5], the “Peracetic acid (ppm) Exposed … Disc” value was 3453 ppm and the “Peracetic acid … Supernatant” value is listed as 719 ppm. The “Peracetic acid (ppm) In Solution” value in assay [6] came to 2951 ppm.

B3: EZ-23: C277S-EPEPE-Link1-EPEPE-CXH104-H6, SEQ ID NO: 447 (protein)
chain: MAFFDLPLEELKKYRPERYEEKDFDEFWEETLAESEKFPLDPVFERMESHLKTVEAYDVTFSGYRGQRIKGWLLVPKLEEEKLPCVVQYIGYNGGRGFPHDWLFWPSMGYICFVMDTRGQGSGWLKGDTPDYPEGPVDPQYPGFMTRGILDPRTYYYRRVFTDAVRAVEAAASFPQVDQERIVIAGGSQGGGIALAVSALSKKAKALLCDVPFLCHFRRAVQLVDTHPYAEITNFLKTHRDKEEIVFRTLSYFDGVNFAARAKIPALFSVGLMDNISPPSTVFAAYNYYAGPKEIRIYPYNNHEGGGSFQAVEQVKFLKKLFEKGEPEGPGSGGAGSPGSAGGPGSEPERMLSRILRMFVRILKRERLSQVRGLFVHHHHHH
B3: in assay [5], the “Peracetic acid (ppm) Exposed … Disc” value is listed as 4463 ppm and the “Peracetic acid … Supernatant” value is 1712 ppm. Besides, the “Peracetic acid (ppm) In Solution” value in assay [6] is 2212 ppm.

B4: EZ-25: C277S-EPEPE-Link1-EPEPE-CXHG102-H6, SEQ ID NO: 449 (protein)
chain: MAFFDLPLEELKKYRPERYEEKDFDEFWEETLAESEKFPLDPVFERMESHLKTVEAYDVTFSGYRGQRIKGWLLVPKLEEEKLPCVVQYIGYNGGRGFPHDWLFWPSMGYICFVMDTRGQGSGWLKGDTPDYPEGPVDPQYPGFMTRGILDPRTYYYRRVFTDAVRAVEAAASFPQVDQERIVIAGGSQGGGIALAVSALSKKAKALLCDVPFLCHFRRAVQLVDTHPYAEITNFLKTHRDKEEIVFRTLSYFDGVNFAARAKIPALFSVGLMDNISPPSTVFAAYNYYAGPKEIRIYPYNNHEGGGSFQAVEQVKFLKKLFEKGEPEPEPEGPGSGGAGSPGSAGGPGSEPEPEPELRFLARRFLKLRRARKWWNAWKVWVTRHHHHHH
As to B4, in assay [5], the “Peracetic acid (ppm) Exposed … Disc” value is listed as 1791 ppm and the “Peracetic acid … Supernatant” value is reported as 1029 ppm. The “Peracetic acid (ppm) In Solution” value in assay [6] was 1703 ppm.
